Results on 1 molecule are retold here after patent US20260102460A1, “NOVEL COMBINATIONS OF ANTIBIOTICS AND NON-ANTIBIOTIC DRUGS EFFECTIVE IN VIVO AGAINST GRAM-POSITIVE BACTERIA, IN PARTICULAR METHICILLIN-RESISTANT S. AUREUS (MRSA)” (EUROPEAN MOLECULAR BIOLOGY LABORATORY, priority 2022, published 2026).

In one experiment the test system is S. aureus USA300. Nature of the experiment: Time-kill experiments. Type of experiment: cell-based, Staphylococcus aureus. The following applies: ticagrelor 5 μg/ml, gentamicin 1.5 μg/ml, plated every 30 minutes for 2 hours (FIG. 5d). The method, then: Overnight cultures of S. aureus USA300 were diluted 1:100 in 20 ml of TSB medium, incubated for 1 h in flasks at 37° C. with continuous shaking and diluted again 1:100 in 20 ml prewarmed TSB with ticagrelor (5 μg/ml), gentamicin (1.5 μg/ml), their combination or without drugs. 50 μl of serial 10-fold dilutions of cultures were plated on TSA plates every 30 minutes for 2 hours. Cell viability was determined by counting CFUs after plates were incubated overnight in four independent experiments.

The subject of experiment [1] is S. aureus Newman. Nature of the experiment: Two-dimensional thermal proteome profiling (2D-TPP), whole cell and lysate. The settings on record: for thermal stability of ATP- and GTP-binding enzymes and transporters: ticagrelor 0.04-4 μg/ml. Type of experiment: cell-based, Staphylococcus aureus.
For experiment [2], the system named is S. aureus Newman. Briefly: Ticagrelor MIC upon purine supplementation. Type of experiment: cell-based, Staphylococcus aureus. The following applies: supplementation with adenosine, inosine or their combination; SSM9PR medium with 1% glucose. As to the method: (§1) MICs were tested in all strains for the main screen. Drugs were two-fold serially diluted in 11 concentrations, and 32 no-drug control wells were included in each plate. Experiments were conducted in 384-well plates (ref. 781271 by Greiner BioOne), with a total volume of 30 μl for S. aureus and B. subtilis and 55 μl for S. pneumoniae. Volumes were optimized for each strain to achieve good dynamic range for growth and minimize risk of cross-contamination between wells. Plates were inoculated with a starting optical density at 595 nm (OD595 nm) of 0.01 from an overnight culture. All liquid handling was performed using a Biomek FX liquid handler (Beckman Coulter). Plates were sealed with breathable membranes and incubated at 37° C. OD595 nm was measured every 30 minutes for 14 hours. The MIC was considered as the first concentration at which growth was inhibited. Experiments were conducted in biological duplicates. For the adjuvant screen, antibiotics were tested in S. aureus DSM 20231 at the same concentrations as for the main screen. Non-antibiotics concentrations were selected to fall within therapeutic ranges.
Ticagrelor (ref. SML2482, Sigma-Aldrich) MIC was measured upon purine supplementation in S. aureus Newman as described above in SSM9PR minimal medium supplemented with 1% glucose79, in 384-well plates (ref. 781271 by Greiner BioOne) with a final volume of 30 μl. […]

The test system of experiment [3] is S. aureus Newman. Nature of the experiment: Cytochrome c binding assay (cell surface charge). Type of experiment: cell-based, Staphylococcus aureus. The following applies: ticagrelor 10 and 5 μg/ml for 20 minutes. The method, then: The cytochrome c binding assay was conducted as previously described (Radlinski, L. C. et al. Chemical Induction of Aminoglycoside Uptake Overcomes Antibiotic Tolerance and Resistance in Staphylococcus aureus. Cell Chem Biol 26, 1355-1364.e4 (2019)). Briefly, overnight cultures of S. aureus Newman were diluted 1:1000 in 20 ml of TSB medium and grown in flasks at 37° C. with continuous shaking until they reached OD578 nm˜0.45. Samples were then incubated in the same conditions with or without 10 and 5 μg/ml ticagrelor for 20 minutes. Samples were centrifuged at 10000 g for 15 minutes, washed twice with 20 mM MOPS buffer (pH 7) and concentrated to reach a final A578 of 10 in a 96 well-plate (ref. 4483481, Applied Biosystems™) containing cytochrome c (0.25 mg/ml, ref. 101467, MP Bio) or MOPS buffer (FIG. 5g). The plate was incubated in the dark at room temperature for 10 minutes. The cell pellets were collected, and the amount of cytochrome c in the supernatant was determined spectrophotometrically at an OD410 nm. Two-fold dilutions of cytochrome c in the same plate, starting from 256 μg/ml, were used to obtain a standard curve onto which a linear model was fitted to calculate cytochrome c concentrations in the other wells. Results are expressed as unbound cytochrome c fraction in the supernatants. Experiments were conducted in four biological replicates.

The subject of another experiment is S. aureus DSM 20231. Briefly: Adjuvant (extended non-antibiotic) combination screen. Type of experiment: cell-based, Staphylococcus aureus. As to the method: as §1
62 drugs, hereafter designated as recipients, were arrayed in 384-well plates (ref. 781271 by Greiner BioOne) in three two-fold serial dilutions and two technical replicates. Concentrations were selected according to MICs, with the highest concentration corresponding to the MIC, and the intermediate and lowest concentration corresponding to ½ and ¼ MIC, respectively. Plates were kept frozen and defrosted upon each experimental run, when the same 62 drugs and in the same three concentrations were added as donor drugs (one drug at one concentration for each recipient plate). A few drugs were screened only as donors: the combinations co-amoxiclav and cotrimoxazole in B. subtilis and S. aureus DSM 20231; co-amoxiclav, clavulanic acid, pseudomonic acid and cefuroxime in S. aureus Newman. All donor drugs were tested in two biological replicates. Control wells were included in each plate (six no-drug wells, three plain medium wells and three wells containing only the donor drug). After the addition of donor drugs, plates were inoculated with cells. Handling, inoculation, growth conditions, plate incubation and OD595 nm measurements were performed as for the MIC determination.
For the adjuvant screen, 44 non-antibiotic drugs were tested against the same recipient drugs of the main screen for S. aureus DSM 20231.
The inventors selected 44 drugs to include pharmaceuticals that can be co-administered with antibiotics in S. aureus infections or non-antibiotics with previously reported antibacterial activity against S. aureus. […] Interactions were scored and benchmarked as for the main screen (Methods).

The next experiment relates to MRSA. The settings on record: ticagrelor 10 μg/mL combined with vancomycin 4 μg/mL; cited from earlier work.

For the molecule `CCCSc1nc(N[C@@H]2C[C@H]2c2ccc(F)c(F)c2)c2nnn([C@@H]3C[C@H](OCCO)[C@@H](O)[C@H]3O)c2n1` [ticagrelor], the “interaction with gentamicin at killing level (CFU over time)” value with S. aureus USA300 is given as “evident”; in the experiment with S. aureus USA300 (listed as Ticagrelor), “synergizes”. Further, in the experiment on S. aureus Newman [1] (live cells), the “abundance of purine biosynthesis enzymes (PurC, PurD, PurE, PurF, PurK, PurL, PurM, PurN, PurQ)” value is “induction”. Further, the “thermal stability of DltC and DltD (LTA D-alanylation)” value with S. aureus Newman [1] (lysate) was “destabilized”. Further, the “thermal stability of ClfA, ClfB, coagulase Coa and vWBP” value in the experiment with S. aureus Newman [1] (lysate, clinically-relevant ticagrelor concentration) is on record as “destabilization”. Also, the “thermal stability of ATP- and GTP-binding enzymes and transporters” value with S. aureus Newman [1] (lysate) and with S. aureus Newman [1] (whole cell) was “destabilization” in each case. The “thermal stability of TagG (WTA translocase subunit)” value in the experiment with S. aureus Newman [1] (whole cell sample) is given as “destabilized”. Besides, the “abundance of ClfA, ClfB, coagulase Coa and vWBP” value with S. aureus Newman [1] (whole-cell samples, clinically-relevant ticagrelor concentration) is on record as “downregulation”. In the experiment on S. aureus Newman [2], the “change of MIC upon purine supplementation” value is “increased”. Besides, the “binding of positively-charged cytochrome C to intact S. aureus cells” value in the experiment on S. aureus Newman [3] is reported as “increased”. For the same molecule, in the experiment with S. aureus DSM 20231 (S. aureus, non-antibiotic drugs with antibiotics), the number of synergies is on record as 13. In addition, the number of interactions in the experiment with S. aureus DSM 20231 (among the 44 non-antibiotics tested, against panel of 62 drugs, S. aureus DSM 20231) turned out to be 27. Also, in the experiment on MRSA, the “initial MRSA inoculum killed” value was “approximately 50%”.
